According to ChEMBL document CHEMBL1156411, “New axane and oppositane sesquiterpenes from Teclea nobilis” (J Nat Prod, 2002):
Calls of active or inactive are those of the source.

How the values were obtained:
Format in all cases: functional, organism-based
Staphylococcus aureus [1] = test: Antimicrobial activity against Staphylococcus aureus
Staphylococcus aureus [2] = test: Antimicrobial activity against methicillin-resistant Staphylococcus aureus
Candida albicans = test: Antimicrobial activity against Candida albicans
Cryptococcus neoformans = test: Antimicrobial activity against Cryptococcus neoformans
Plasmodium falciparum [3] = test: Antiplasmodial activity against Plasmodium falciparum D6
Plasmodium falciparum [4] = test: Antiplasmodial activity against Plasmodium falciparum W2

Measured: Activity

C=C1CC[C@H](O)[C@@]2(C)CC[C@H](C(=O)C(C)C)[C@@H]12
inactive: Staphylococcus aureus [1] | Staphylococcus aureus [2] | Candida albicans | Cryptococcus neoformans | Plasmodium falciparum [3] | Plasmodium falciparum [4]

C=C1CC[C@@H](O)[C@]2(C)CC[C@H](C(=O)C(C)C)[C@@H]12
inactive: Staphylococcus aureus [1] | Staphylococcus aureus [2] | Candida albicans | Cryptococcus neoformans | Plasmodium falciparum [3] | Plasmodium falciparum [4]
